How the values were obtained:
[1] = Sun Protection Factor of treated fabric, AS/NZS 4399:1996, Melbourne sunlight; settings: Cotton-cretone; bleached, then fresh bath with 0.01% UV absorber (102) followed by 0.2% compound (101), relative to fabric weight; average of 4 measurements
Description: (§1) The sun protection factor is defined as the ratio of the harmful dose of UV energy on protected skin to the harmful dose of UV energy on unprotected skin. Accordingly, a sun protection factor is also a measure of the transmissivity of fibre materials untreated and of those treated with FWA's and reactive UV absorbers described in this invention.
(§2) The sun protection factor can be determined, for example, by the method described by B. L. Diffey and J.Robson in J.Soc.Cosmet.Chem., 40, 127-133 (1989).
(§3) Two samples each of 10 g. of a pre-washed cellulose fabric (cotton cretonne) are treated in an AHIBA® dyeing machine for 60 minutes at 95° C. at a liquor ratio of 1:20 in two different aqueous liquors.
(§4) A) 3.0 ml/l hydrogen peroxide 35% • 2.0 ml/l sodium silicate 38° Bé • 2.0 ml/l caustic soda 36° Bé • 0.5 g/l ULTRAVON EL
(§5) B) The same liquor as in A), but containing additionally • 0.012% compound of formula (101) according to Example 1.
Two samples each of 10 g. of a pre-washed cellulose fabric (cotton cretonne or cotton poplin, respectively) are treated in an AHIBA® dyeing machine for 60 minutes at 95° C. at a liquor ratio of 1:20 in an aqueous liquor containing:
The samples are then treated for 10 minutes at 40° C. at a liquor ratio of 1:20 in a fresh bath containing 0.01% (relative to the weight of the fabric) of the compound of the formula [drawing 25] […]

[2] = as above; settings: Cotton-Poplin; bleached, then fresh bath with 0.01% UV absorber (102) followed by 0.2% compound (101), relative to fabric weight; average of 4 measurements
Description: as §1, §2, §3, §4, §5
If the procedure of Example 9 is repeated, but with samples of different cellulose fabric (cotton poplin) the results of the following table are obtained.
Two samples each of 10 g. of a pre-washed cellulose fabric (cotton cretonne or cotton poplin, respectively) are treated in an AHIBA® dyeing machine for 60 minutes at 95° C. at a liquor ratio of 1:20 in an aqueous liquor containing: […]

CCOc1ccc(NC(=O)C(=O)Nc2ccc(Nc3nc(Cl)nc(Nc4ccc(S(=O)(=O)CCOS(=O)(=O)[O-])cc4)n3)cc2)cc1S(=O)(=O)[O-].[Na+].[Na+] [compound (102)]
SPF value [1]: additional improvement
SPF value [2]: additional improvement
